Experimental data reported in ChEMBL document CHEMBL1131912, “Synthesis of potent and selective inhibitors of human plasma kallikrein” (Bioorg Med Chem Lett, 1999).

How the values were obtained:
[1] = target: Kallikrein-1 (Homo sapiens, UniProt P06870); experiment: Inhibitory activity of compound against Tissue Kallikrein (TK)
[2] = target: Plasma kallikrein (Homo sapiens, UniProt P03952); experiment: Inhibitory activity of compound against human plasma Kallikrein (PK); format: cell-free
Chain of Plasma kallikrein (P03952 20-390 limits assumed): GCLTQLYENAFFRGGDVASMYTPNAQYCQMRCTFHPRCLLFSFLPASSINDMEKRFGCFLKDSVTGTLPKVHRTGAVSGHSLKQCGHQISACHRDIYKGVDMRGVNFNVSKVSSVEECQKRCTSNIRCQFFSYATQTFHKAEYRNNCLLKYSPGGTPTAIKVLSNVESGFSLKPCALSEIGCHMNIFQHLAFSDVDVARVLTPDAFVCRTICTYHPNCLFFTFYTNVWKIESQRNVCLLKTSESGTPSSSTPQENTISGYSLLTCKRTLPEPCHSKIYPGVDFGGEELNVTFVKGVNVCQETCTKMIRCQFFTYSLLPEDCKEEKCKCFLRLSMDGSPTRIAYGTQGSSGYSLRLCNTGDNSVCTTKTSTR
Chain of Plasma kallikrein (P03952 391-638 limits assumed): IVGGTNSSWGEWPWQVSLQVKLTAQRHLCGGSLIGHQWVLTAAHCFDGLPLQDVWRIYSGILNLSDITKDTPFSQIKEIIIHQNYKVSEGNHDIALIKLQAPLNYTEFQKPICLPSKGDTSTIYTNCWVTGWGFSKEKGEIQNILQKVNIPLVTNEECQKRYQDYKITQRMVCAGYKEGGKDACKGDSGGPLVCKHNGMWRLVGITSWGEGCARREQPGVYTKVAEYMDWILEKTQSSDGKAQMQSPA

Chain of Kallikrein-1 (P06870 whole entry): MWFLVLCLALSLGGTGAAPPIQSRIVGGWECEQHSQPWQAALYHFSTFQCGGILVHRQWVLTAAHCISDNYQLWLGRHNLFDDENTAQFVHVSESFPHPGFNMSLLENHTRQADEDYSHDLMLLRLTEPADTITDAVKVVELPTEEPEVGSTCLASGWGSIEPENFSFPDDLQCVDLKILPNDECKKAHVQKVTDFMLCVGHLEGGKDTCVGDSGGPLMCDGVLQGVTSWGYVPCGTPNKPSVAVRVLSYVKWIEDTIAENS

Ki [1] [µM] | Ki [2] [µM] | SMILES
191 | 0.005 | CC(C)[C@@H](NC(=O)OC12CC3CC(CC(C3)C1)C2)C(=O)N[C@@H](Cc1ccccc1)C(=O)NC(Cc1ccc(NC(=N)N)cc1)C(=O)C(F)(F)F (some centres undefined)
> 150 | 15.5 | CC(C)(C)[C@@H](NC(=O)N1CCOCC1)C(=O)NCC(=O)NC(Cc1ccc(NC(=N)N)cc1)C(=O)C(F)(F)F (some centres undefined)
7 | 0.004 | N=C(N)Nc1ccc(CC(NC(=O)[C@H](Cc2ccccc2)NC(=O)[C@@H](CCc2ccccc2)NC(=O)OC23CC4CC(CC(C4)C2)C3)C(=O)C(F)(F)F)cc1 (some centres undefined)
47.3 | 0.002 | CC(C)(C)[C@@H](NC(=O)OC12CC3CC(CC(C3)C1)C2)C(=O)N[C@@H](Cc1ccccc1)C(=O)NC(Cc1ccc(NC(=N)N)cc1)C(=O)C(F)(F)F (some centres undefined)
> 2500 | 0.028 | CC(C)(C)[C@@H](NC(=O)N1CCOCC1)C(=O)N[C@@H](Cc1ccccc1)C(=O)NC(Cc1ccc(NC(=N)N)cc1)C(=O)C(F)(F)F (some centres undefined)
> 50 | 0.5 | CC(C)(C)[C@@H](NC(=O)OC12CC3CC(CC(C3)C1)C2)C(=O)N[C@H](C(=O)NC(Cc1ccc(NC(=N)N)cc1)C(=O)C(F)(F)F)c1ccc2ccccc2c1 (some centres undefined)
223 | 0.089 | CC(C)(C)OC(=O)N[C@H](Cc1ccccc1)C(=O)N[C@H](C(=O)NC(Cc1ccc(NC(=N)N)cc1)C(=O)C(F)(F)F)c1ccc2ccccc2c1 (some centres undefined)
